The values below come from patent US10618875B2 (priority 2017, dated 2020).

In one data set the test system is NCI-60 cell lines. In words: cells. The format is cell-based, human.
For data set [1] the following is noted: in vivo.
The conditions of data set [2]: mouse, in vivo.
Data set [3] has as its system Hep3B-luc human liver tumor. Also noted: species or system BALB/c nude mice. Particulars: mouse.

Counter-ions that a name gives are not always drawn.

As for `O=[N+]([O-])c1ccc(O)c([N+](=O)[O-])c1` [DNP, 2,4-dinitrophenol], in the data set on NCI-60 cell lines, the “delta of growth percent across all cell lines tested” value is listed as 28.44% and the “range of growth percent across all cell lines” value is 44.43%. The activity at 10 µM in the data set on NCI-60 cell lines (Homo sapiens, 48 h, read-out: mean growth percent of control across the NCI-60) stood at 98.4%. Further, the inhibition at 10 µM in the data set with NCI-60 cell lines (Homo sapiens, read-out: growth inhibition in any of the NCI-60 cell lines) is less than 50%. The compound also came in with an animals that died in data set [1] (male, C57BL/6, mouse) of 50%. Also, the LD50 in data set [1] (mouse, po) is given as 100 mpk. Further, the blood creatinine result in data set [2] is “raised blood creatinine”.

For `CNC(=O)c1cc(Oc2ccc(NC(=O)Nc3ccc(Cl)c(C(F)(F)F)c3)cc2)ccn1` [Sorafenib, Sorafenib Tosylate], the “BLI (in vivo bioluminescence) of Hep3B-luc tumor” value in data set [3] is reported as “showed a trend toward having an effects on decreasing BLI”.
